Here are results for five compounds from paper PMC10224444, “Novel Perspectives on the Design and Development of a Long-Acting Subcutaneous Raltegravir Injection for Treatment of HIV—In Vitro and In Vivo Evaluation” (Pharmaceutics, 2023).

SMILES strings stand for the structures. “And” between values parts separate entries of the source, which are not always exact repeats. Equal values may be shown once.

The nature of data set [1]: Pharmacokinetic study after single SC injection in BALB/c mice. It counts as in vivo. The note with it: mouse, plasma level of the dosed compound, single SC 30 mg/kg, male BALB/c mice, n = 3. As to the method:
The pharmacokinetic profile of prodrug 25 was evaluated in mice, in a study undertaken at WuXi AppTec. Prodrug 25 was dissolved in a sterile vehicle of DMSO/Solutol HS15/water (10:10:80) to give a clear solution with a final concentration of 6 mg/mL. The same procedure was used to prepare a 6 mg/mL solution of RAL as a control. Six male BALB/c mice were used, each weighing 18–25 g and aged between 7–9 weeks (three per group). A single 30 mg/kg dose of prodrug 25 was administered to each animal in the treatment group (subcutaneously, in the thoracic region). Similarly, RAL (30 mg/kg) was administered to each animal in the control group. Blood samples were taken at the time points indicated below, up to the experiment endpoint (96 h).
For each animal, blood samples (30 μL each) were collected from the submandibular or saphenous vein over a period of 96 h, at the following time points: zero/pre-dose; then 0.25, 0.5, 1, 2, 3, 4, 5, 6, 24, 48, and 96 h. All samples were transferred into pre-chilled commercial K2EDTA tubes and placed on wet ice until processing for plasma, which was obtained by centrifugation at 4 °C and 3200× g for 10 min, within 30 min of sampling. The plasma samples were transferred to polypropylene tubes, snap-frozen on dry ice, and kept at −70 ± 10 °C until LC-MS/MS analysis.
An LC-MS/MS method was developed to measure the concentrations of prodrug 25 and RAL in the biological matrix. Two mobile phases were used: mobile phase A (0.025% NH4OH and 2 mM NH4OAc in 95:5 v/v water/MeCN) and mobile phase B (0.025% NH4OH and 2 mM NH4OAc in 5:95 v/v water/MeCN). A UPLC method was performed using an LC-MS/MS-BM Triple Quad 6500 plus system with an ACQUITY UPLC BEH C18 1.7 μm column (2.1 × 50 mm) at a flow rate of 0.65 mL/min. The assay time was 2.5 min, and the solvent B composition was as follows: 10–100% (0.2–1.4 min), 30% (1.41–1.7 min), 95% (2.0–2.4 min), and 10% (2.41–2.5 min). The retention times for the prodrug, RAL and the internal standards (tolbutamide and verapamil) were 0.76, 1.04, 0.66, and 0.97 min, respectively. Quantification was performed by monitoring the transition of m/z 835.3 [M+H]^+ to 457.2 for prodrug 25, representing the cyclisation of the linker with the amidic RAL such as in side-product 22; whereas for RAL, the transition m/z 445.2 [M+H]^+ to 361.2 was followed, representing the loss of the 2-methyl-1,3,4-oxadiazole moiety as the main fragmentation pathway. For the internal standards, the m/z transition from 455.2 [M+H]^+ to 164.9 was used for verapamil (corresponding to formation of the verapamil fragment [CH2CH2-(3,4-dimethoxy phenyl)]^+), and for tolbutamide, the transition of m/z of 271.1 [M+H]^+ to 155.1 was used, representing formation of the [CH3-Ph-SO2]^+ fragment. […] The method was linear over the measured standard concentrations for 25 and RAL. The mean plasma concentration was determined for 25 and RAL (as metabolite or control) at each sampling time point. Pharmacokinetic parameters were then calculated by non-compartmental analysis of plasma concentration/time profiles using the Phoenix WinNonlin 6.3 software. The computed parameters were as follows: peak plasma concentration (Cmax); the time over which the initial concentration is reduced to half (t½); area under the plasma concentration versus time curve from time zero to 96 h (AUC 0–96 h); and mean residence time from time zero to 96 h (MRT 0–96 h).
Since in vitro models are not fully predictive of in vivo pharmacokinetics, especially for prodrugs, assessment of these characteristics still relies on in vivo studies. Therefore, the pharmacokinetic profile of prodrug 25 was evaluated in mice. Compound 25 and the control (RAL) were dissolved in DMSO/Solutol HS15/water (10:10:80). For a single SC injection of 25 (30 mg/kg) in BALB/c mice (n = 3), the plasma concentrations of prodrug and released RAL were measured at the following time points: zero/pre-dose; then 0.25, 0.5, 1, 2, 3, 4, 5, 6, 24, 48, and 96 h. […]

The nature of data set [2]: In vitro release test in 50% PBS (pH 7.4, 34 °C), HPLC. It is filed as physicochemical. The note with it: for half-life: 50% PBS pH 7.4, 25 µM CTG probes, 100 µM prodrug 25, calculated as 0.69/kobs, read-out: t½ (half-life of payload release) (converted). On the procedure: (§1) Probes 14–15 and 20–21 stock solutions were prepared at 1000 µM (1 mM) in a 1:1 mixture of MeCN/water, followed by serial dilution with deionised water to give a 50 µM working concentration. Each experiment was run in triplicate after dilution of 0.5 mL of the stock solution with 0.5 mL of PBS (pH 7.4) or Tris buffer (pH 7.4), giving a final assay concentration of 25 µM for the probes. The samples were incubated at 34 °C to mimic the conditions found in SC tissue. Every day, a 2 µL aliquot of each sample was subjected to HPLC analysis using an Agilent 1260 Infinity instrument, with conditions as follows. Column: Agilent ZORBAX Eclipse Plus C18 Rapid Resolution, 3.5 μm (4.6 × 100 mm), pore size (95 Å); column temperature (35 °C). The mobile phases were solvent A: 0.1% TFA in ultrapure H2O and solvent B: 0.1% TFA in MeCN. The injection volume was 2 μL and the flow rate was kept at 1.0 mL/min. The analysis was performed using a gradient elution of 5–100% of solvent B in solvent A over 9 min, then maintained for a further 1 min at two wavelengths: 254 nm and 214 nm. The retention times of CTG and probes 14–15 and 20–21 were 4.13, 4.27, 4.93, 5.55, and 5.71 min, respectively. A calibration curve for the free CTG fluorophore was constructed over the concentration range of 10–100 µM at pH 7.4. The data were fit by linear regression to the equation y = 14.615x − 0.067, where y is the peak area of the analyte and x is the analyte concentration (µM). The correlation coefficient (R2) was computed as 0.999, confirming the linearity of used method under the specified measured concentrations.
Likewise, a test solution of prodrug 25 was incubated in 50% PBS at 100 µM final concentration, and analysed using the same HPLC method but with detection at 254 nm only. A higher concentration of 25 was used due to its relatively weaker absorption at 254 nm, compared with CTG. The retention times of RAL and prodrug 25 were 4.47 and 5.55 min, respectively. A calibration curve of RAL was constructed over the range 50–1000 µM. The data were fit by linear regression as before to give the equation y = 5.1961x − 20.064, with a similar goodness of fit (R^2 ≥ 0.999).
(§2) In vitro Release assays for probes 14–15 and 20–21 were conducted using pH and temperature conditions similar to those of SC tissue (pH 7.4 and 34 °C). Test compounds were dissolved in either MeCN/PBS (1:1, pH 7.4) or MeCN/Tris buffer (1:1, pH 7.4) at 25 µM, then incubated at 34 °C. Aliquots were taken daily and analysed by HPLC and LC-MS until complete fluorophore release was achieved. HPLC was preferred over fluorometric-based assay to study the stability of the synthesised probes because of the bleaching effect that may occur to the fluorophore over the long analysing periods. Photobleaching is the inability of the fluorophore to fluoresce due to the fluorophore instability upon repeated exposure to light over long periods. It can be a particular problem for fluorescence-based assays, thereby rationalising the choice of HPLC in the current work.
Similarly to the assays above, prodrug 25 (100 µM) was incubated in 50% PBS at 34 °C, and aliquots analysed daily by HPLC and LC-MS until full RAL release was achieved.

Data set [3] is described as follows: In vitro release test in 50% Tris buffer (pH 7.4, 34 °C), HPLC. It counts as physicochemical. The note with it: 25 µM probe. As to the method:
as §1, §2

Where [4] appears, read: 50% PBS, pH 7.4, 34 °C, 25 µM probe, 1 d.
Where [5] appears, read: 50% PBS, pH 7.4, 34 °C, 25 µM probe.

As to `Cc1nnc(C(=O)NC(C)(C)c2nc(C(=O)NCc3ccc(F)cc3)c(OCOC(=O)OCCCCCCNCCCc3cn(CCP(=O)(O)O)nn3)c(=O)n2C)o1` [Compound 25, 6-(((((4-((4-Fluorobenzyl)Carbamoyl)-1-Methyl-2-(2-(5-Methyl-1,3,4-Oxadiazole-2-Carboxa-Mido)Propan-2-Yl)-6-Oxo-1,6-Dihydropyrimidin-5yl)Oxy)Methoxy)Carbonyl)Oxy)-N-(3-(1-(2-Phosphonoethyl)-1H-1,2,3-Triazol-4-Yl)Propyl)Hexan-1-Aminium Chloride], in data set [1], the Cmax (as a rule, the peak of the concentration-time curve) was determined as 4550 ng/mL and the time to peak (Tmax) (in general, the time from dosing to the highest level) is 0.25 h. Besides, in data set [1] (read-out: AUC 0–96 h), the AUC(0-t) is 3270 ng·h/mL. For the same compound, the half-life in data set [1] (read-out: t½ (converted)) is 0.85 h. In data set [2] (50% PBS buffer), the half-life is 463 h. In addition, the “release kinetics (order)” value in data set [2] (50% PBS, pH 7.4) is “first-order kinetics”. For the same compound, the “time to maximal release of payload” value in data set [2] (50% PBS, pH 7.4, 34 °C) came out at 45 days. Also, in data set [2] (50% PBS, pH 7.4, 34 °C, 100 µM prodrug, 1 d), the “RAL released after 1 d” value stood at 8.4%. Also, the “RAL released after 10 d” value in data set [2] (50% PBS, pH 7.4, 34 °C, 100 µM prodrug, 10 d) turned out to be 31.5%. Further, in data set [2] (50% PBS, pH 7.4, 34 °C, 100 µM prodrug, 45 d), the “RAL released after 45 d (plateau)” value was 82% and 82.1%. The “degree of side-product (27) formation” value in data set [2] (50% PBS, pH 7.4, 34 °C, hydrolysis of RAL oxadiazole, accounts for unreleased RAL) is listed as 15.2%.

Take `C#CCCCNCCCCCCOC(=O)OCOc1ccc2c(-c3ccc(C(=O)O)cc3C)c3ccc(=O)cc-3oc2c1.Cl` [Compound 15, 6-(((((9-(4-Carboxy-2-methylphenyl)-3-oxo-3H-xanthen-6-yl)oxy)methoxy)carbonyl)oxy)-N-(pent-4-yn-1-yl)hexan-1-aminium chloride]: the half-life in data set [2] was 47.5 h. The “CTG fluorophore released after 1 d” value in data set [2] (setting [4]) was 29%. The “CTG fluorophore released after 2 d” value in data set [2] (setting [5]) is 50%. Moreover, the “CTG fluorophore released after 10 d” value in data set [2] (50% PBS, pH 7.4, 34 °C, 25 µM probe, 10 d) is reported as 98%. Also, the “CTG release after 1 d in 50% Tris buffer” value in data set [3] is on record as 86.2%.

Regarding `Cc1cc(C(=O)OC(C)(C)C)ccc1-c1c2ccc(=O)cc-2oc2cc(OCOC(=O)OCCCCCCNCCCc3cn(CCP(=O)(O)O)nn3)ccc12.Cl` [Compound 21, 6-(((((9-(4-(Tert-Butoxycarbonyl)-2-Methylphenyl)-3-Oxo-3H-Xanthen-6-yl)Oxy)Methoxy)Carbonyl)Oxy)-N-(3-(1-(2-Phosphonoethyl)-1H-1,2,3-Triazol-4-yl)Propyl)Hexan-1-Aminium Chloride], the half-life in data set [2] was 75.6 h. Moreover, in data set [2] (50% PBS, pH 7.4, 34 °C), the “time to maximal release of payload” value amounted to 15 days. For the same compound, the “CTG fluorophore released after 1 d” value in data set [2] (setting [4]) was found to be 20%. Besides, in data set [2] (setting [5]), the “CTG fluorophore released after 2 d” value was determined as 33%. Further, the “CTG fluorophore released after 15 d” value in data set [2] (50% PBS, pH 7.4, 34 °C, 25 µM probe, 15 d) is on record as 98%. Also, the “CTG release after 1 d in 50% Tris buffer” value in data set [3] is 80.9%.

On to `Cc1cc(C(=O)O)ccc1-c1c2ccc(=O)cc-2oc2cc(OCOC(=O)OCCCCCNCCCc3cn(CCP(=O)(O)O)nn3)ccc12.Cl` [Compound 20, 5-(((((9-(4-Carboxy-2-Methylphenyl)-3-Oxo-3H-Xanthen-6-yl)Oxy)Methoxy)Carbonyl)Oxy)-N-(3-(1-(2-Phosphonoethyl)-1H-1,2,3-triazol-4-yl)Propyl)Pentan-1-Aminium Chloride], for which the half-life in data set [2] is 69.1 h. Besides, the “CTG fluorophore released after 1 d” value in data set [2] (setting [4]) is 25%. In addition, in data set [2] (setting [5]), the “CTG fluorophore released after 2 d” value was found to be 41%. Further, the “CTG fluorophore released after 13 d” value in data set [2] (50% PBS, pH 7.4, 34 °C, 25 µM probe, 13 d) came to 98%. In data set [3], the “CTG release after 1 d in 50% Tris buffer” value came out at 82.5%.

As for `C#CCCCNCCCCCOC(=O)OCOc1ccc2c(-c3ccc(C(=O)O)cc3C)c3ccc(=O)cc-3oc2c1.Cl` [Compound 14, N-(5-(((((9-(4-Carboxy-2-methylphenyl)-3-oxo-3H-xanthen-6-yl)oxy)methoxy)carbonyl)oxy)pentyl)pent-4-yn-1-aminium chloride], the half-life in data set [2] (50% PBS buffer) is 40.6 h. Moreover, the “CTG fluorophore released after 1 d” value in data set [2] (setting [4]) was 36%. Moreover, the “CTG fluorophore released after 2 d” value in data set [2] (setting [5]) was found to be 58%. Besides, in data set [2] (50% PBS, pH 7.4, 34 °C, 25 µM probe, 9 d), the “CTG fluorophore released after 9 d” value was 98%. Also, the “CTG release after 1 d in 50% Tris buffer” value in data set [3] was found to be 89.2%.
